Results on 5 compounds are retold here after US8084429B2, “Compounds and their analgesic applications” (priority 2002, dated 2011).

In the data set the test system is rat. Nature of the data set: observation of undesirable effects after intrathecal administration. In kind it is in vivo. As to the method: A silicone catheter was introduced into the intrathecal space of a rat in the cervical region of the spine, having an external diameter of 0.64 mm and an internal diameter of 0.3 mm. The 12 cm long catheter was prepared in the following way: at a distance of 7.5 cm from the end of the catheter, a flange was made around it with soft silicone glue. The remaining 4.5 cm stretch of the catheter was extended to the outside and connected to a 30G needle mounted on a 25 microliter Hamilton syringe. The implantation of the catheter was made under general anaesthesia. After shaving the coat from the shoulders and neck, the rat was placed in a stereotactic apparatus. The 1.5 cm long incision was made centrally, front to rear, along the axis of the spine. After reaching the muscles, they were prised apart and access to the basal membrane was prepared. The basal membrane was incised. The prepared catheter, filled with a sterile physiological saline solution, was inserted the through the incision in the membrane to a depth of 7.5 cm towards the rear, so that its end was found at the location of the L1. The muscle and skin were sutured. After recovery from general anaesthesia the rats were placed in separate cages. Biphaline was administered and measurements were made during the second day following the operation. All epidural injections were made at a constant volume of 10 microliters. Following the injection, the catheter was rinsed with 15 microliters of sterile physiological saline solution. Analgesis was measured in relation to a tail retraction test to which a thermal stimulus was applied in the form of a beam of light with a temperature of 55° C. The temperature and focus of the light was such that the time of reaction of the rat fit within the 2-3 second margin. The maximum time that the tail was agitated with the pain-stimulating light stimulus was set as 7 seconds, so as not to cause tail burns connected with a prolonged exposure of tissues to temperature. The pain-stimulating stimulus threshold was determined previous to administration of the compounds, as well as at the 5, 15, 30, 60 and 120 minutes following the administration. The degree of analgesis was expressed as a percent of the maximum possible effect (denoted as % MPE) according to the following equation: […]

Each structure is given as a SMILES string. Starred links: 1 amine or outer side, 2 acyl side, 3 side chain; linkers in the order of their positions; H or OH if unused. Positions of bridges follow the written chain, without caps; N, C: chain ends. Non-standard residues stand in square brackets, D forms with d. Residues, ends and D or L forms follow the SMILES beside them. Chains are numbered I, II in the order given. NHNH = N(N[*:2])[*:1]

For `NC(=O)CC[C@@H](NC(=O)[C@@H](N)Cc1ccc(O)cc1)C(=O)NCC(=O)N[C@@H](Cc1ccccc1)C(=O)NNC(=O)[C@H](Cc1ccccc1)NC(=O)CNC(=O)[C@@H](CCC(N)=O)NC(=O)[C@@H](N)Cc1ccc(O)cc1` [(Tyr-D-Gln-Gly-Phe-NH—)2, (Tyr-D-Gln-Gly-Phe-NH-)2] (I: H-Y[dQ]GF / II: H-Y[dQ]GF; linker I:C-II:C via NHNH), the undesirable effects entry (0.05 micrograms intrathecal) is on record as “No undesirable effects were observed”.
On the same count and under the same terms, the same measure for `CC(C)C[C@@H](NC(=O)[C@@H](N)Cc1ccc(O)cc1)C(=O)NCC(=O)N[C@@H](Cc1c[nH]c2ccccc12)C(=O)NNC(=O)[C@H](Cc1c[nH]c2ccccc12)NC(=O)CNC(=O)[C@@H](CC(C)C)NC(=O)[C@@H](N)Cc1ccc(O)cc1` [(Tyr-D-Leu-Gly-Trp-NH—)2, (Tyr-D-Leu-Gly-Trp-NH-)2] (I: H-Y[dL]GW / II: H-Y[dL]GW; linker I:C-II:C via NHNH): “No undesirable effects were observed”; for `CSCC[C@@H](NC(=O)[C@@H](N)Cc1ccc(O)cc1)C(=O)NCC(=O)N[C@@H](Cc1ccccc1)C(=O)NNC(=O)[C@H](Cc1ccccc1)NC(=O)CNC(=O)[C@@H](CCSC)NC(=O)[C@@H](N)Cc1ccc(O)cc1` [(Tyr-D-Met-Gly-Phe-NH—)2, (Tyr-D-Met-Gly-Phe-NH-)2] (I: H-Y[dM]GF / II: H-Y[dM]GF; linker I:C-II:C via NHNH): “No undesirable effects were observed”; for `C[C@H](O)[C@@H](NC(=O)[C@@H](N)Cc1ccc(O)cc1)C(=O)NCC(=O)N[C@@H](Cc1ccccc1)C(=O)NNC(=O)[C@H](Cc1ccccc1)NC(=O)CNC(=O)[C@H](NC(=O)[C@@H](N)Cc1ccc(O)cc1)[C@H](C)O` [(Tyr-D-Thr-Gly-Phe-NH—)2, (Tyr-D-Thr-Gly-Phe-NH-)2] (I: H-Y[dT]GF / II: H-Y[dT]GF; linker I:C-II:C via NHNH): “No undesirable effects were observed”.
Consider `C[C@@H](NC(=O)[C@@H](N)Cc1ccc(O)cc1)C(=O)NCC(=O)N[C@@H](Cc1ccccc1)C(=O)NNC(=O)[C@H](Cc1ccccc1)NC(=O)CNC(=O)[C@@H](C)NC(=O)[C@@H](N)Cc1ccc(O)cc1` [biphaline, (Tyr-D-Ala-Gly-Phe-NH-)2], for which the undesirable effects entry reads like this: (0.005 micrograms, then 0.003 micrograms every half hour for 8 hours, intrathecal) “No undesirable effects were observed”; (0.5 micrograms intrathecal) “No undesirable effects were observed”. The duration of stiffness (25 micrograms intrathecal) came out at 4 h. Further, where the note is “25 micrograms intrathecal, after three minutes following the injection”, the muscle stiffness entry is “stiffness of limb and back muscles was observed”. Moreover, the respiratory ability entry (25 micrograms intrathecal, during stiffness) was “respiratory ability was maintained”. Further, the respiratory depression result (extremely high dosages, as much as a thousand-fold the minimal effective analgesic dose) is on record as “did not cause respiratory depression”.
